Experimental findings from US20230382926A1, “COMPOUNDS AND USES THEREOF” (The University of The West Indies, priority 2022, published 2023) are described below.

Each structure is given as a SMILES string.

Assay [1] has as its system Carbapenem resistant Klebsiella pneumoniae. Briefly: Broth microdilution minimum inhibitory concentration. In kind it is cell-based. Particulars: compound alone. The method, then: (§1) Antibacterial activity of the synthesized compounds was determined following guidelines established by the Clinical and Laboratory Standards Institute M07-A10 (CLSI 2015), following the broth microdilution method. Briefly, the test articles were dissolved in 100% DMSO, diluted by 2-fold serial titrations in the same vehicle (100% DMSO), for a total of 11 concentrations. A 4 μL aliquot of each dilution was then added to 196 μL of broth medium seeded with the bacterial suspension in wells of a 96 well plate (bacterial count: 2×10^5 to 8×10^5 colony forming units/mL final). The highest test substance concentration was 1028 μg/mL, and the final vehicle concentration was 2 percent. Following incubation, the test plate was visually examined, and each well was scored for growth or complete inhibition of growth. The minimum inhibitory concentration was determined as the lowest concentration were no growth of the bacterial was observed. Each test article was assayed in duplicate.
Background: Dilution methods test growth across graded concentrations, often in twofold steps.

Assay [2] deals with Multidrug resistant Pseudomonas aeruginosa. The description is as above. Particulars: compound alone. In kind it is cell-based. The method, then:
as §1

The test system of assay [3] is Vancomycin resistant Enterococcus faecalis. The assay is described as above. Type of assay: cell-based. Particulars: compound alone. The procedure: as §1
The test system of assay [4] is Carbapenem resistant Acinetobacter baumannii. The description is as above. Type of assay: cell-based. Particulars: compound alone. The procedure: as §1
Assay [5] concerns Methicillin resistant Staphylococcus aureus. The assay is described as above. Type of assay: cell-based. Particulars: compound alone. The procedure: as §1
The subject of assay [6] is K. pneumoniae. Briefly: Rescue concentration of substituted phenyl azaindole derivatives. Particulars: for Rescue concentration, K. pneumoniae Ciprofloxacin (1 μg/mL): Ciprofloxacin fixed at 1 μg/mL; for Rescue concentration, K. pneumoniae Imipenem (1 μg/mL): Imipenem fixed at 1 μg/mL. Type of assay: cell-based. The method, then:
(§2) The antibiotic adjuvant activity of the SPazaBIMs were evaluated in combination with representative antibiotics (representing 13 antibiotic classes) against the 19 pathogens strains listed in Table 3. To assess the adjuvant properties of the SP-azaBIM molecules, a modified checkerboard minimum inhibitory concentration assay was used. A fixed concentration of the respective antibiotic (susceptible breakpoint concentration) was mixed with a twofold dilution series of the test SP-azaBIM (FIG. 1). This was to determine the concentration of SP-azaBIM needed potentiate the antibiotic at a clinically susceptible breakpoint concentration. Antibiotic susceptible breakpoint concentrations for the respective bacteria were determined using Clinical Laboratory Standards Institute (CLSI) criteria M100 ED31.
(§3) In this study, only those antibiotics to which the bacterial was classed as resistant were included in the adjuvant assays. In this assay we recorded the rescue concentration of the SP-BIM for a respective antibiotic. The rescue concentration was defined as the concentration of the adjuvant that reduces the minimum inhibitory concentration (MIC) of an antibiotic to the susceptibility breakpoint.
(§4) Immediately prior to testing, the respective antibiotic and SP-azaBIM was dissolved in sterile deionised water at 20× the required test concentration. Each microtiter well was then inoculated with 180 μl of bacterial inoculum of 10^6 CFU/ml in ca-MHB, and 10 μl each if the antibiotic and SP-azaBIM was added to the plates. These plates were then incubated at 35° C. for 24 h under aerobic conditions. A similar method was followed for the fastidious pathogens except that they were cultured in ca-MHB with 5% sheep blood and 5% CO2.
(§5) Bacterial growth was visually inspected after the incubation period and the rescue concentration of the test SP-azaBIM was determined as the lowest concentration of the compound needed to reduce bacterial growth by 99.99% at the susceptible breakpoint concentration of the antibiotic. For example, CLSI states that Pseudomonas aeruginosa is susceptible to the Imipenem if the MIC is ≤2 μg mL^−1. If the bacteria can tolerate this concentration in vitro, then the bacteria has an intermediate or absolute resistance toward that antibiotic. The goal was to determine the concentration of SP-azaBIM needed to cause P. aeruginosa death at 2 μg mL^−1 of Imipenem therefore restoring susceptibility of the bacteria to toward the antibiotic.
(§6) Phenyl azaindole compounds are also tested for their adjuvant activities and the method is shown in Example 39.

Assay [7] concerns P. aeruginosa. Described as above. Type of assay: cell-based. Particulars: Imipenem fixed at 1 μg/mL. The procedure:
as §2, §3, §4
Bacterial growth was visually inspected after the incubation period and the rescue concentration of the test SP-azaBIM was determined as the lowest concentration of the compound needed to reduce bacterial growth by 99.99% at the susceptible breakpoint concentration of the antibiotic. […] If the bacteria can tolerate this concentration in vitro, then the bacteria has an intermediate or absolute resistance toward that antibiotic. […]
as §6

Assay [8] has as its system MRSA. The assay is described as above. Type of assay: cell-based, Staphylococcus aureus. Particulars: Amoxicillin fixed at 2 μg/mL. The method, then:
as §2, §3, §4, §5, §6

`O=[N+]([O-])c1cccc(C(O)c2c[nH]c3ncc(Cl)cc23)c1` (stereo not drawn) [3NO2-5Cl-7aza-OH, (5-chloro-1H-pyrrolo[2,3-b]pyridin-3-yl)(3-nitrophenyl)methanol]: the MIC in assay [1], in assay [2], in assay [3], in assay [4] and in assay [5] was less than 1020 µg/mL in each case. In addition, the “Rescue concentration, K. pneumoniae Ciprofloxacin (1 μg/mL)” value in assay [6] is less than 256 µg/mL. Further, in assay [6], the “Rescue concentration, K. pneumoniae Imipenem (1 μg/mL)” value is less than 256 µg/mL. Besides, the “Rescue concentration, P. aeruginosa Imipenem (1 μg/mL)” value in assay [7] is less than 256 µg/mL. Besides, the “Rescue concentration, MRSA Amoxicillin (2 μg/mL)” value (“Rescue concentration … (2 μg/mL)” below) in assay [8] was less than 256 µg/mL.
For the compound `O=[N+]([O-])c1ccc(C(O)c2c[nH]c3cnc(Br)cc23)cc1` (stereo not drawn) [4NO2-5Br-6aza-OH, (5-bromo-1H-pyrrolo[2,3-c]pyridin-3-yl)(4-nitrophenyl)methanol], the minimal inhibitory concentration (MIC) in assay [1], in assay [2], in assay [3], in assay [4] and in assay [5] was less than 1020 µg/mL in each case. In addition, the “Rescue concentration, K. pneumoniae Ciprofloxacin (1 μg/mL)” value in assay [6] was less than 256 µg/mL. In addition, in assay [6], the “Rescue concentration, K. pneumoniae Imipenem (1 μg/mL)” value is less than 256 µg/mL. In addition, the “Rescue concentration, P. aeruginosa Imipenem (1 μg/mL)” value in assay [7] was less than 256 µg/mL. In assay [8], the “Rescue concentration … (2 μg/mL)” value was 32 µg/mL.
Regarding `Oc1ccc(C(O)c2c[nH]c3cnc(Cl)cc23)cc1` (stereo not drawn) [4OH-5Cl-6aza-OH, 4-((5-chloro-1H-pyrrolo[2,3-c]pyridin-3-yl)(hydroxy)methyl)phenol], the MIC in assay [1], in assay [2], in assay [3], in assay [4] and in assay [5] was less than 1020 µg/mL in each case. In addition, in assay [6], the “Rescue concentration, K. pneumoniae Ciprofloxacin (1 μg/mL)” value was less than 256 µg/mL. The “Rescue concentration, K. pneumoniae Imipenem (1 μg/mL)” value in assay [6] was found to be 256 µg/mL. Also, the “Rescue concentration, P. aeruginosa Imipenem (1 μg/mL)” value in assay [7] was less than 256 µg/mL. For the same compound, in assay [8], the “Rescue concentration … (2 μg/mL)” value was found to be 16 µg/mL.
As to `O=[N+]([O-])c1ccc(C(O)c2c[nH]c3c(Cl)nccc23)cc1` (stereo not drawn) [4NO2-7Cl-6aza-OH, (7-chloro-1H-pyrrolo[2,3-c]pyridin-3-yl)(4-nitrophenyl)methanol], the MIC in assay [1], in assay [2], in assay [3], in assay [4] and in assay [5] was less than 1020 µg/mL each time. Also, the “Rescue concentration, K. pneumoniae Ciprofloxacin (1 μg/mL)” value in assay [6] was less than 256 µg/mL. In assay [6], the “Rescue concentration, K. pneumoniae Imipenem (1 μg/mL)” value is less than 256 µg/mL. Further, the “Rescue concentration, P. aeruginosa Imipenem (1 μg/mL)” value in assay [7] was less than 256 µg/mL. Besides, in assay [8], the “Rescue concentration … (2 μg/mL)” value was found to be 8 µg/mL.
`OC(c1cccc(Br)c1)c1c[nH]c2cnccc12` (stereo not drawn) [Compound 3Br-6aza-OH, (3-bromophenyl)(1H-pyrrolo[2,3-c]pyridin-3-yl)methanol]: the MIC in assay [1], in assay [2], in assay [3], in assay [4] and in assay [5] was less than 1020 µg/mL in each case. In assay [6], the “Rescue concentration, K. pneumoniae Ciprofloxacin (1 μg/mL)” value stood at 4 µg/mL. Moreover, the “Rescue concentration, K. pneumoniae Imipenem (1 μg/mL)” value in assay [6] was 4 µg/mL. Also, the “Rescue concentration, P. aeruginosa Imipenem (1 μg/mL)” value in assay [7] came to 32 µg/mL. Also, the “Rescue concentration … (2 μg/mL)” value in assay [8] is 1 µg/mL.
As to `O=[N+]([O-])c1ccc(C(O)c2c[nH]c3ncc(F)cc23)cc1` (stereo not drawn) [4NO2-5Fl-7aza-OH, (5-fluoro-1H-pyrrolo[2,3-b]pyridin-3-yl)(4-nitrophenyl)methanol], the MIC in assay [1], in assay [2], in assay [3], in assay [4] and in assay [5] was less than 1020 µg/mL throughout. Further, in assay [6], the “Rescue concentration, K. pneumoniae Ciprofloxacin (1 μg/mL)” value is less than 256 µg/mL. The “Rescue concentration, K. pneumoniae Imipenem (1 μg/mL)” value in assay [6] is less than 256 µg/mL. For the same compound, the “Rescue concentration, P. aeruginosa Imipenem (1 μg/mL)” value in assay [7] was less than 256 µg/mL. Also, the “Rescue concentration … (2 μg/mL)” value in assay [8] stood at 16 µg/mL.
With `Oc1ccc(C(c2c[nH]c3ncc(Cl)cc23)c2c[nH]c3ncc(Cl)cc23)cc1` [4OH-Bis 5Cl 7aza, 4-(bis(5-chloro-1H-pyrrolo[2,3-b]pyridin-3-yl)methyl)phenol], the MIC in assay [1], in assay [2], in assay [3], in assay [4] and in assay [5] was less than 1020 µg/mL each time. Besides, the “Rescue concentration, K. pneumoniae Ciprofloxacin (1 μg/mL)” value in assay [6] is less than 256 µg/mL. The “Rescue concentration, K. pneumoniae Imipenem (1 μg/mL)” value in assay [6] was less than 256 µg/mL. Moreover, the “Rescue concentration, P. aeruginosa Imipenem (1 μg/mL)” value in assay [7] was less than 256 µg/mL. Moreover, the “Rescue concentration … (2 μg/mL)” value in assay [8] came out at 2 µg/mL.
Take `Oc1ccc(C(O)c2c[nH]c3cnccc23)cc1` (stereo not drawn) [Compound 4OH-6aza-OH, 4-(hydroxy(1H-pyrrolo[2,3-c]pyridin-3-yl)methyl)phenol]: the MIC in assay [1], in assay [2], in assay [3], in assay [4] and in assay [5] was less than 1020 µg/mL throughout. Moreover, the “Rescue concentration, K. pneumoniae Ciprofloxacin (1 μg/mL)” value in assay [6] was less than 256 µg/mL. In addition, in assay [6], the “Rescue concentration, K. pneumoniae Imipenem (1 μg/mL)” value was less than 256 µg/mL. The “Rescue concentration, P. aeruginosa Imipenem (1 μg/mL)” value in assay [7] was 256 µg/mL. Besides, the “Rescue concentration … (2 μg/mL)” value in assay [8] was 32 µg/mL.
Consider `O=[N+]([O-])c1cccc(C(O)c2c[nH]c3c(Cl)nc(Br)cc23)c1` (stereo not drawn) [3NO2-5Br-7Cl-6aza-OH, (5-bromo-7-chloro-1H-pyrrolo[2,3-c]pyridin-3-yl)(3-nitrophenyl)methanol], for which the MIC in assay [1], in assay [2], in assay [3], in assay [4] and in assay [5] was less than 1020 µg/mL throughout. Also, in assay [6], the “Rescue concentration, K. pneumoniae Ciprofloxacin (1 μg/mL)” value was less than 256 µg/mL. In addition, the “Rescue concentration, K. pneumoniae Imipenem (1 μg/mL)” value in assay [6] was less than 256 µg/mL. In addition, in assay [7], the “Rescue concentration, P. aeruginosa Imipenem (1 μg/mL)” value was less than 256 µg/mL. Also, the “Rescue concentration … (2 μg/mL)” value in assay [8] turned out to be 16 µg/mL.
Regarding `O=[N+]([O-])c1ccc(C(O)c2c[nH]c3c(Cl)nc(Br)cc23)cc1` (stereo not drawn) [4NO2-5Br-7Cl-6aza-OH, (5-bromo-7-chloro-1H-pyrrolo[2,3-c]pyridin-3-yl)(4-nitrophenyl)methanol], the MIC in assay [1], in assay [2], in assay [3], in assay [4] and in assay [5] was less than 1020 µg/mL each time. For the same compound, in assay [6], the “Rescue concentration, K. pneumoniae Ciprofloxacin (1 μg/mL)” value is less than 256 µg/mL. The “Rescue concentration, K. pneumoniae Imipenem (1 μg/mL)” value in assay [6] was less than 256 µg/mL. The “Rescue concentration, P. aeruginosa Imipenem (1 μg/mL)” value in assay [7] was less than 256 µg/mL. The “Rescue concentration … (2 μg/mL)” value in assay [8] stood at 16 µg/mL.
For the compound `COc1ccc(C(O)c2c[nH]c3cnc(Br)cc23)cc1OC` (stereo not drawn) [3,4 Di methoxy 5Br-6aza-OH, (5-bromo-1H-pyrrolo[2,3-c]pyridin-3-yl)(3,4-dimethoxyphenyl)methanol], the MIC in assay [1], in assay [2], in assay [3], in assay [4] and in assay [5] was less than 1020 µg/mL each time. Further, in assay [6], the “Rescue concentration, K. pneumoniae Ciprofloxacin (1 μg/mL)” value is less than 256 µg/mL. The “Rescue concentration, K. pneumoniae Imipenem (1 μg/mL)” value in assay [6] was less than 256 µg/mL. The “Rescue concentration, P. aeruginosa Imipenem (1 μg/mL)” value in assay [7] is less than 256 µg/mL. Moreover, the “Rescue concentration … (2 μg/mL)” value in assay [8] worked out at 2 µg/mL.
